Legend:
[1] = Liquid; for mass density / speed of sound: 101 kPa; for speed of sound: Sing-around technique in a fixed-path interferometer; for viscosity: 101.3 kPa
[2] = xn = mol fraction of the nth substance listed; conditions: 101 kPa, Liquid; for speed of sound: Sing-around technique in a fixed-path interferometer

COCCO [2-methoxyethan-1-ol]
[1]
Conditions | mass density [kg/m3] | speed of sound [m/s] | viscosity [mPa·s]
298.15 K | 959.5 | 1339.3 | 1.543
308.15 K | 952.1 | – | 1.256
318.15 K | 945.8 | – | 1.047

COCCO [2-methoxyethan-1-ol] + CCCCCCCCO
[2]
Conditions | mass density, 298.15 K [kg/m3] | mass density, 308.15 K [kg/m3] | mass density, 318.15 K [kg/m3] | speed of sound, 298.15 K [m/s] | viscosity, 298.15 K [mPa·s] | viscosity, 308.15 K [mPa·s] | viscosity, 318.15 K [mPa·s]
x2 = 0 | 959.5 | 952.1 | 945.8 | 1339.3 | 1.543 | 1.256 | 1.047
x2 = 0.061 | 943 | 935.6 | 929.5 | 1334.3 | 1.677 | 1.368 | 1.141
x2 = 0.1275 | 927.1 | 920 | 913.8 | 1329.3 | 1.822 | 1.454 | 1.209
x2 = 0.2003 | 912.1 | 904.9 | 898.8 | 1323 | 1.983 | 1.582 | 1.304
x2 = 0.2804 | 897.4 | 890.5 | 884.4 | 1318 | 2.145 | 1.749 | 1.426
x2 = 0.3688 | 883.4 | 876.4 | 870.5 | 1314.6 | 2.408 | 1.948 | 1.571
x2 = 0.4671 | 869.9 | 862.9 | 857 | 1315.4 | 2.774 | 2.19 | 1.781
x2 = 0.5769 | 857 | 850 | 844 | 1320 | 3.432 | 2.67 | 2.062
x2 = 0.7004 | 844.6 | 837.6 | 831.5 | 1326.5 | 4.238 | 3.19 | 2.466
x2 = 0.8402 | 832.8 | 825.6 | 819.4 | 1335.8 | 5.412 | 4.012 | 3.064

CC(=O)N(C)C [N,N-dimethylethanamide]
[1]
Conditions | mass density [kg/m3] | speed of sound [m/s] | viscosity [mPa·s]
298.15 K | 937.2 | 1458.2 | 0.937
308.15 K | 925.8 | – | 0.841
318.15 K | 917.1 | – | 0.763

CC(=O)N(C)C [N,N-dimethylethanamide] + CCCCCCCCO
[2]
Conditions | mass density, 298.15 K [kg/m3] | mass density, 308.15 K [kg/m3] | mass density, 318.15 K [kg/m3] | speed of sound, 298.15 K [m/s] | viscosity, 298.15 K [mPa·s] | viscosity, 308.15 K [mPa·s] | viscosity, 318.15 K [mPa·s]
x2 = 0 | 937.2 | 925.8 | 917.1 | 1458.2 | 0.937 | 0.841 | 0.763
x2 = 0.0692 | 923.5 | 912.7 | 904.4 | 1433.5 | 1.072 | 0.942 | 0.851
x2 = 0.1433 | 910.4 | 900.2 | 892.2 | 1412.4 | 1.246 | 1.063 | 0.947
x2 = 0.2228 | 897.7 | 888.1 | 880.4 | 1390.3 | 1.418 | 1.194 | 1.046
x2 = 0.3084 | 885.5 | 876.3 | 868.9 | 1372.5 | 1.702 | 1.376 | 1.185
x2 = 0.4008 | 873.7 | 864.8 | 857.8 | 1360 | 2.023 | 1.614 | 1.361
x2 = 0.5009 | 862.3 | 853.9 | 847 | 1353.4 | 2.399 | 1.893 | 1.585
x2 = 0.6095 | 851.4 | 843.4 | 836.7 | 1348.5 | 3.111 | 2.406 | 1.935
x2 = 0.728 | 840.9 | 833.1 | 826.6 | 1346.4 | 4.009 | 2.988 | 2.35
x2 = 0.8576 | 830.9 | 823.4 | 816.9 | 1348 | 5.318 | 3.849 | 2.965

CC(=O)c1ccccc1 [acetophenone]
[1]
Conditions | mass density [kg/m3] | speed of sound [m/s] | viscosity [mPa·s]
298.15 K | 1023.1 | 1296.2 | 1.653
308.15 K | 1014.9 | – | 1.411
318.15 K | 1007.2 | – | 1.115

CC(=O)c1ccccc1 [acetophenone] + CCCCCCCCO
[2]
Conditions | mass density, 298.15 K [kg/m3] | mass density, 308.15 K [kg/m3] | mass density, 318.15 K [kg/m3] | speed of sound, 298.15 K [m/s] | viscosity, 298.15 K [mPa·s] | viscosity, 308.15 K [mPa·s] | viscosity, 318.15 K [mPa·s]
x2 = 0 | 1023.1 | 1014.9 | 1007.2 | 1296.2 | 1.653 | 1.411 | 1.115
x2 = 0.093 | 997.7 | 989.7 | 982.4 | 1278.5 | 1.713 | 1.528 | 1.208
x2 = 0.1874 | 973.7 | 966.1 | 958.9 | 1266.5 | 1.831 | 1.669 | 1.327
x2 = 0.2834 | 951.2 | 943.6 | 936.6 | 1263.3 | 1.994 | 1.785 | 1.424
x2 = 0.3808 | 929.7 | 922.2 | 915.5 | 1264.7 | 2.205 | 1.949 | 1.535
x2 = 0.4799 | 909.3 | 902 | 895.3 | 1271.8 | 2.519 | 2.167 | 1.671
x2 = 0.5805 | 889.8 | 882.5 | 876 | 1281.8 | 2.997 | 2.4 | 1.807
x2 = 0.6828 | 871.3 | 864.1 | 857.7 | 1295.4 | 3.65 | 2.799 | 2.095
x2 = 0.7868 | 853.8 | 846.6 | 840.2 | 1311.1 | 4.475 | 3.249 | 2.432
x2 = 0.8925 | 837.1 | 829.9 | 823.6 | 1327.8 | 5.625 | 3.931 | 2.926

CCCCCCCCO [octan-1-ol]
[1]
Conditions | mass density [kg/m3] | speed of sound [m/s] | viscosity [mPa·s]
298.15 K | 821.5 | 1349.2 | 7.365
308.15 K | 814 | – | 5.251
318.15 K | 807.7 | – | 3.865

CCCCCCCCO [octan-1-ol] + CC(=O)N(C)C
[2], x1 = 1
Conditions | mass density [kg/m3] | speed of sound [m/s] | viscosity [mPa·s]
298.15 K | 821.5 | 1349.2 | 7.365
308.15 K | 814 | – | 5.251
318.15 K | 807.7 | – | 3.865

CCCCCCCCO [octan-1-ol] + CC(=O)c1ccccc1
[2], x1 = 1
Conditions | mass density [kg/m3] | speed of sound [m/s] | viscosity [mPa·s]
298.15 K | 821.5 | 1349.2 | 7.365
308.15 K | 814 | – | 5.251
318.15 K | 807.7 | – | 3.865

CCCCCCCCO [octan-1-ol] + COCCO
[2], x1 = 1
Conditions | mass density [kg/m3] | speed of sound [m/s] | viscosity [mPa·s]
298.15 K | 821.5 | 1349.2 | 7.365
308.15 K | 814 | – | 5.251
318.15 K | 807.7 | – | 3.865
